Among the data in patent US20250042924A1, “WATER-SOLUBLE PHYTIN” (OTSUKA PHARMACEUTICAL CO., LTD., priority 2021, published 2025) are enzyme inhibitory activity and Deliquescence values, retold here.

In data set [1] the test system is rat small intestine powder (enzyme solution). Put plainly: Test Example 2 purine nucleotide metabolism inhibitory activity (inosine monophosphate substrate, HPLC). It counts as biochemical. The conditions noted are these: 37° C., 30 minutes. On the procedure:
Ca(OH)2 (Inoue Calcium Corporation) as a calcium source, Mg(OH)2 (Tomita Pharmaceutical Co., Ltd.) as a magnesium source, KOH (NIPPON SODA CO., LTD.) as a potassium source, NaOH (Tosoh Corporation) as a sodium source were placed in a 50 mL PP tube (IWAKI) at molar ratios of the minerals shown in Table 2. Then a commercially available phytic acid solution (product name: phytic acid (IP6), TSUNO Food Industrial co., ltd.) 0.426 mL (containing 0.296 g of phytic acid) was placed therein. Distilled water (Otsuka Pharmaceutical Factory, Inc.) was added thereto to make up the volume to 30 mL. The mixture was stirred for 30 seconds using a vortex mixer, followed by ultrasonication (ASONE) for 60 seconds to prepare a test solution containing phytin with various mineral compositions.
As a positive control, a test solution containing a commercially available phytin (phytin (IP6), TSUNO Food Industrial co., ltd.) was prepared at the same concentration of phytic acid as the other test solutions.
A 100 mg/mL of solution of rat small intestine powder (Clare Japan, Inc.) in the assay buffer was used as an enzyme solution. Inosine monophosphate (Sigma-Aldrich) was diluted with the assay buffer to the concentration of 9 mM to prepare a substrate solution. Enzymatic reaction was performed using a 96 well plate (Thermo Fisher Scientific) in the following manner. […]

Data set [2] is described as follows: Test Example 4 stability (deliquescence). It counts as physicochemical. More on the design: key: “Deliquesced” refers to a change where the sample completely liquefied to become starch syrup-like; “Partially-deliquesced” refers to a change where a part of the sample deliquesced or solidified.; “No change” refers to a no change in state of the sample. Particulars: 200 mg, 25° C., humidity 75.3%, 64 hours. On the procedure:
Ca(OH)2 (Inoue Calcium Corporation) as a calcium source, Mg(OH)2 (Tomita Pharmaceutical Co., Ltd.) as a magnesium source, KOH (NIPPON SODA CO., LTD.) as a potassium source, NaOH (Tosoh Corporation) as a sodium source were placed in a 50 mL PP tube (IWAKI) at the molar ratios of minerals shown in Table 3. Then a commercially available phytic acid solution (product name: phytic acid (IP6), TSUNO Food Industrial co., ltd.) 0.426 mL (containing 0.296 g of phytic acid) was placed therein. Distilled water (Otsuka Pharmaceutical Factory, Inc.) was added thereto to make up the volume to 30 mL. The mixture was stirred for 30 seconds using a vortex mixer, followed by ultrasonication (ASONE) for 60 seconds. This operation of stirring and ultrasonication was repeated three times in total. Then the mixture was adjusted to pH 4.0±0.2 with hydrochloric acid and pre-frozen at −80° C. The pre-frozen mixture was freeze-dried by using a freeze dryer to provide a completely powdered phytin. The completely powdered phytin was used as a sample.
As positive controls, a sample of phytic acid (powder) prepared following the above procedure without adding any mineral component, and a commercially available phytic acid powder product (product name: Powdered phytic acid, FUSO CHEMICAL CO., LTD.) were used. […]

Consider `O=P(O)(O)O[C@H]1[C@H](OP(=O)(O)O)[C@@H](OP(=O)(O)O)[C@H](OP(=O)(O)O)[C@@H](OP(=O)(O)O)[C@H]1OP(=O)(O)O` [Phytic acid (PA), phytic acid], for which the enzyme inhibitory activity result in data set [1] was “around 30%”. The values for the Deliquescence entry in data set [2] and in data set [2] (listed as phytic acid sample) were “Deliquesced” and “deliquesced”, respectively.
